Test results: US5734013A, “Peptides having farnesyl transferase inhibiting properties and strain of genus streptomyces for producing same” (Rhone-Poulenc Rorer S.A., priority 1994, dated 1998)
Starred links: 1 amine or outer side, 2 acyl side, 3 side chain; linkers in the order of their positions; H or OH if unused. Positions of bridges follow the written chain, without caps; N, C: chain ends. Non-standard residues stand in square brackets, D forms with d. Residues, ends and D or L forms follow the SMILES beside them. *: point of attachment. Trp(5-OH) = N[CH](Cc1c[nH]c2ccc(O)cc12)C(=O)O; Propanoyl(3-cHex) = O=C(CCC1CCCCC1)*; Hpg = N[CH](C(=O)O)c1ccc(O)cc1; NMeF = CN[CH](Cc1ccccc1)C(=O)O; X1 = CC1CC1(N[*:1])C(=O)[*:2]; Ac3c = NC1(C(=O)O)CC1

Each molecule was assayed against T1, farnesyl transferase (Ftase) (Homo sapiens, UniProt P49354+P49356) (assay: Scintillation proximity assay (SPA) test for farnesyl transferase inhibition). Details: Ftase partially purified from human THP1 cells; biotinylated B lamin peptide (BLB) 0.1 μM, 3HFPP 0.12 μM; 37° C., 60 minutes.
T1 construct: This enzyme was partially purified from human THP1 cells; endogenous in cells; host or cells: human THP1 cells (enzyme partially purified)
Format: biochemical
Method: The principle of SPA (scintillation proximity assay) technology is applied to assaying the enzymic activity of farnesyl transferase. According to this method, farnesyl transferase inhibitory activity is determined by the quantity of (^3 H)-farnesyl which is transferred from (^3 H)-farnesyl pyrophosphate ((^3 H) FPP) to a biotinylated acceptor substrate.
The acceptor substrate, which is biotinylated, is a peptide of 11 amino acids corresponding to the terminal sequence of B lamin (BLB). The donor substrate, farnesyl pyrophosphate, is labelled with tritrium (^3 HFPP). […] The radio-labelled peptide excites the beads, which then emit light which is quantified in a solid-liquid scintillation counter (Topcount®, Packard).
The SPA reaction is started by adding 40 μl of Ftase (2 μg) to a microtitre plate which contains 20 μl of BLB (0.1 μM), 20 μl of ^3 HFPP (0.12 μM) and 20 μl of assay buffer 50 mM Hepes, pH 7.5, 5 mM MgCl2, 5 mM DTT, 20 mM KCl, 0.01% triton X100 (control) or 20 μl of sample diluted in assay buffer (screening). The plate is incubated at 37° C. for 60 minutes and the reaction is stopped by adding 150 μl of stopping reagent containing the SPA beads. The plate is sealed with an adhesive film, left at ambient temperature for 30 minutes in order to reach equilibrium, and then counted in the Topcount counter. […] The IC50 values of the compounds are calculated by non-linear regression.

Point of comparison: `COC(=O)CCC1NC(=O)C(Cc2ccccc2)N(C)C(=O)C(NC(=O)CCC2CCCCC2)C(C)OC(=O)C2(CC2C)NC(=O)C(c2ccc(O)cc2)NC(=O)C(Cc2c[nH]c3ccc(O)cc23)NC1=O` (stereo not drawn) [Peptide 3] ({Propanoyl(3-cHex)}-T[NMeF]E(OMe)[Trp(5-OH)][Hpg][X1]; ester 1-C; configuration not given here), IC50 1300 nM. Against it:
- CC1OC(=O)C2(CC2C)NC(=O)C(c2ccc(O)cc2)NC(=O)C(Cc2c[nH]c3ccc(O)cc23)NC(=O)C(CCC(=O)O)NC(=O)C(Cc2ccccc2)N(C)C(=O)C1NC(=O)CCC1CCCCC1 (stereo not drawn) [Peptide 2] ({Propanoyl(3-cHex)}-T[NMeF]E[Trp(5-OH)][Hpg][X1]; ester 1-C; configuration not given here) — 2.4-fold lower, 538 nM
- CC1OC(=O)C2(CC2)NC(=O)C(c2ccc(O)cc2)NC(=O)C(Cc2c[nH]c3ccc(O)cc23)NC(=O)C(CCC(=O)O)NC(=O)C(Cc2ccccc2)N(C)C(=O)C1NC(=O)CCC1CCCCC1 (stereo not drawn) [Peptide 1] ({Propanoyl(3-cHex)}-T[NMeF]E[Trp(5-OH)][Hpg][Ac3c]; ester 1-C; configuration not given here) — 2.1-fold lower, 626 nM
